One test deals with U-87 cells. Description: TEM visualization of apoptotic cell death. The format is cell-based, human. As to conditions: 2.8 μM peptide. The procedure: Representative images of transmission electron microscopy (TEM) of untreated cells (FIG. 8A) or cells treated with 2.8 μM of D-Δ1-14N-Ter-Antp (FIG. 8B) are shown.
Test [1] deals with glioblastoma cell line U-87. Description: Cytochrome c release from mitochondria to cytosol (immunoblot). It counts as cell-based, human. Conditions: U-87 cells, concentration-dependent. The procedure: Release of cytochrome c (Cyt c) from mitochondria to the cytosol was measured by immunoblots. Cells were incubated for 5 h with the indicated concentration of the peptide, harvested, washed twice with PBS and gently resuspended in ice-cold buffer (100 mM KCl, 2.5 mM MgCl2, 250 mM sucrose, 20 mM HEPES/KOH pH 7.5, 0.2 mMEDTA, 1 mM dithiothreitol, 1 μg/ml leupeptin, 5 μg/ml cytochalasin B and 0.1 mM phenylmethylsulfonyl fluoride) containing 0.025% digitonin and incubated for 10 min on ice. Samples were centrifuged at 10,000 g at 4° C. for 5 min to obtain the supernatants (cytosolic extracts free of mitochondria) and the pellets (fraction that contains mitochondria). The supernatants were analyzed by SDS-PAGE and immunoprobed using anti-Cyto c antibodies (1:2000, BD Pharmingen™ Cat #556433), and then with secondary horseradish peroxidase (HRP)-conjugated anti-mouse antibodies.
The effect of D-Δ(1-14) N-Ter-Antp on apoptosis was examined in the glioblastoma cell line U-87. U-87 cells were incubated with and without the peptide, treated with digitonin (0.02%) and the release of cytochrome c from mitochondria to the cytosolic fraction was analyzed by immunoblotting.
In general terms: A western blot detects proteins with antibodies after separation by electrophoresis.

The test system of another test is glioblastoma U-87 cells. Nature of the test: ATP quantification (CellTiter-Glo). The format is cell-based, human. As to conditions: 3 h incubation. The protocol:
U-87 cells were seeded in 96-well plates (2×10^6/ml), incubated for 3 h with the indicated concentrations of D-Δ1-14N-Ter-Antp (SEQ ID NO:9), washed twice with PBS and incubated with the CellTiter-Glo reagent (Promega). Luminescence was recorded using an Infinite M1000 microplate reader (Tecan Trading, Mannedorf, Switzerland).
VDAC1 is a key component in regulating the energy production of the cell. It is known that cancer cells are characterized by elevated energy demand. The effects of D-Δ(1-14) N-Ter-Antp on the mitochondrial inner membrane polarization and cellular ATP level were examined using glioblastoma U-87 cells. U-87 cells were incubated for 3 h with the various concentrations of D-Δ1-14N-Ter-Antp or with FCCP (10 μM, control for depolarization) for 1 h.

The target in test [2] is T1, Mitochondria-Bound Hexokinase 1 (HK-1) (Rattus norvegicus, UniProt P05708).
T1 construct: expressed in transfected cells; host or cells: HeLa cells
T1 sequence (P05708 1-918): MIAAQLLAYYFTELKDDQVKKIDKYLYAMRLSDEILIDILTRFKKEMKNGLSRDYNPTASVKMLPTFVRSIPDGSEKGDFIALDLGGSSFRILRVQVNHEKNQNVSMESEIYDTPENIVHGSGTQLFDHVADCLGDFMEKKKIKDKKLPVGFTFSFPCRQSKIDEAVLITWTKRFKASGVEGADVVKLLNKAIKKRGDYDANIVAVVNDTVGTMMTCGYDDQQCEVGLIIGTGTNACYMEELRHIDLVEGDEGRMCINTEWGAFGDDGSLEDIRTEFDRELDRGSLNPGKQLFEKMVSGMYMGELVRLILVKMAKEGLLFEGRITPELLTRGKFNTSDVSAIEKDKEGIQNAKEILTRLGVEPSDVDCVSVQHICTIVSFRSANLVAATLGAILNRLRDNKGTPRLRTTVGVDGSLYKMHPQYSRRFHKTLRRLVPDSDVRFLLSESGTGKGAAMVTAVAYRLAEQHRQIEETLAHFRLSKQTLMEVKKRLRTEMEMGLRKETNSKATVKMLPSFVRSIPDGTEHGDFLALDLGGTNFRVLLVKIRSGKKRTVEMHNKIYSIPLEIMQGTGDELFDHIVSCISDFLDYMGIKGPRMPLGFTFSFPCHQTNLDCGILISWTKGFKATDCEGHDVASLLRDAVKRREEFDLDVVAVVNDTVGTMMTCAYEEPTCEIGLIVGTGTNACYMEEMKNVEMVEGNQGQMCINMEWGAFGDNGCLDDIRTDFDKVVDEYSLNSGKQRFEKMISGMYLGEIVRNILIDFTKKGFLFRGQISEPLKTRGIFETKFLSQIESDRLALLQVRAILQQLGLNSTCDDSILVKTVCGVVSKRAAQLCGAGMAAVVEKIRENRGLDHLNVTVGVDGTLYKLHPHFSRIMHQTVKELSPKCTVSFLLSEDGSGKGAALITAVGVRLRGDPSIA
Nature of the test: Detachment of mitochondria-bound HK-1-GFP in HeLa cells (confocal microscopy). The format is cell-based. As to conditions: HeLa cells expressing HK-1-GFP, 6 h. The protocol: To visualize HK detachment induced by the D-Δ(1-14) N-terminal-Antp peptide, HeLa cells (3×10^5) were grown on Poly-D-Lysine (PDL)-coated coverslips in a 60 mm dish and transfected with pEGFP-HK-I or with plasmid pEGFP. HK-I-GFP fusion protein, in which GFP was connected to the HK-I C-terminal (pEGFP-HK-I), was constructed using an EcoR1 restriction site to introduce GFP into the 3′ (at the stop codon) of HK1 in plasmid pcDNA3.1 by site-directed mutagenesis with overlapping PCR amplification, using the following primers: 5′-[…]-3; (forward, SEQ ID NO:24) and 5′-[…]-3; (reverse, SEQ ID NO:25).
After 48 h, cells were incubated for 6 h with a serum-free medium containing 0.4% DMSO or with the indicated concentration of D-Δ(1-14) N-Ter-Antp peptide. Cells were washed with PBS, fixed for 20 min with 4% paraformaldehyde prepared in PBS, rinsed for 30 min in PBS and cell imaging was carried out by confocal microscopy (Olympus 1×81).

Structures are written as SMILES. Where a SMILES comes first, the peptide text is derived from it. [ ]: non-standard residue; d: D form.

Consider `CC[C@@H](C)[C@@H](NC(=O)[C@@H](CCCCN)NC(=O)[C@H](NC(=O)[C@@H](CCC(N)=O)NC(=O)[C@@H](CCCNC(=N)N)NC(=O)[C@@H](CC(C)C)NC(=O)CNC(=O)[C@@H](Cc1ccccc1)NC(=O)CNC(=O)[C@@H](Cc1ccc(O)cc1)NC(=O)CNC(=O)[C@@H](CCCCN)NC(=O)[C@H](NC(=O)[C@@H](Cc1ccccc1)NC(=O)[C@H](NC(=O)[C@@H](CC(=O)O)NC(=O)[C@H](N)CCCNC(=N)N)C(C)C)[C@H](C)O)[C@H](C)CC)C(=O)N[C@H](Cc1c[nH]c2ccccc12)C(=O)N[C@H](Cc1ccccc1)C(=O)N[C@H](CCC(N)=O)C(=O)N[C@H](CC(N)=O)C(=O)N[C@H](CCCNC(=N)N)C(=O)N[C@H](CCCNC(=N)N)C(=O)N[C@H](CCSC)C(=O)N[C@H](CCCCN)C(=O)N[C@H](Cc1c[nH]c2ccccc12)C(=O)N[C@H](CCCCN)C(=O)N[C@H](CCCCN)C(=O)O` [D-Δ(1-14) N-Ter-Antp, ALL D-RDVFTKGYGFGL RQIKIWFQNRRMKWKK] (H-[dR][dD][dV][dF][dT][dK]G[dY]G[dF]G[dL][dR][dQ][dI][dK][dI][dW][dF][dQ][dN][dR][dR][dM][dK][dW][dK][dK]-OH), for which, in the test on U-87 cells, the “apoptotic morphology by TEM” value was “typical morphologic changes associated with apoptosis”. Moreover, the “release of cytochrome c from the mitochondria” value in test [1] is on record as “significantly induced”. In addition, the “cellular ATP level” value with glioblastoma U-87 cells is listed as “almost complete reduction of cellular ATP level”. The “HK-1-GFP detachment from the mitochondria” value in test [2] is reported as “diffusion of HK-1-GFP out into the cytosol is observed”.

Source of the values: patent publication US9758559B2, “Short peptides derived from VDAC1, compositions and methods of use thereof” (B.G. NEGEV TECHNOLOGIES AND APPLICATIONS LTD., AT …, priority 2013, dated 2017).
